No end group written: not given here.
Tests used:
Format in all cases: cell-based
CRPA = assay: Minimum bactericidal concentration (MBC) assay; settings: Tables 11-21, no unit printed
[1] = tested on: Enterococcus faecium (ATCC 19434); settings: ATCC 19434, 4 h
Procedure: (§1) Specifically, each type of bacteria was cultured in 3% (w/v) TSB (tryptic soy broth) liquid medium at 37° C. and 200 rpm for 4 hours, and then further cultured under the same conditions for 3 hours to a concentration of 5×10^6 CFU/ml. Strain solutions were prepared by diluting each of the further cultured strains with SP buffer to a final concentration of 2×10^5 CFU/ml.
(§2) Then, the KU-5878 peptide at varying concentrations (0 μg/ml to 300 μg/ml) was dispensed into each well of a 96-well microplate, and 100 μl (1×10^5 CFU/ml) of each of the prepared strain solutions was added thereto, mixed therewith, and allowed to react with the peptide in an incubator at 37° C. for 1 hour.
(§3) In addition, 10 μl of each reaction solution of the peptide and the strain was plated on the TS agar plate at a constant size, and incubated in an incubator at 37° C. for 18 hours, and then colony formation on the plate was checked. The minimum bactericidal concentration was defined as the minimum concentration of the peptide at which no colony was formed, and the experimental results are shown in Table 2 below.

[2] = tested on: Bacillus subtilis (ATCC 6633); settings: ATCC 6633, 4 h
Procedure: as §1, §2, §3

[3] = tested on: Acinetobacter baumannii (ATCC 19606); settings: ATCC 19606, 4 h
Procedure: as §1, §2, §3

[4] = tested on: Escherichia coli (ATCC 25922); settings: ATCC 25922, 4 h
Procedure: as §1, §2, §3

[5] = tested on: Streptomyces sindenensis (ATCC 12392); settings: ATCC 12392, 4 h
Procedure: as §1, §2, §3

[6] = tested on: Enterococcus faecalis (ATCC 19433); settings: ATCC 19433, 4 h
Procedure: as §1, §2, §3

[7] = tested on: Enterobacter aerogenes (ATCC 13048); settings: ATCC 13048, 4 h
Procedure: as §1, §2, §3

[8] = tested on: Klebsiella pneumoniae (ATCC 13883); settings: ATCC 13883, 4 h
Procedure: as §1, §2, §3

[9] = tested on: Pseudomonas aeruginosa (ATCC 27853); assay: Minimum bactericidal concentration (MBC) assay; settings: Tables 11-21, no unit printed
Method in brief: (§4)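 Strains were cultured in 3% TSB at 37° C and brought to 2×10^5 CFU/ml in SP buffer. This suspension was mixed with peptide (0–300 μg/ml) for 1 h at 37° C. Reaction mixtures were then plated on TS agar and incubated 18 h.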

[10] = tested on: Staphylococcus aureus (ATCC 29213); assay: Minimum bactericidal concentration (MBC) assay; settings: Tables 11-21, no unit printed
Method in brief: as §4

## KTMMQSGGTFGTFMAIGMGIR [KU-5878]
CRPA
  MBC CRPA: 110 µg/mL
[1]
  MBC value: 85 µg/mL
[2]
  MBC value: 90 µg/mL
[3]
  MBC value: 100 µg/mL
[4]
  MBC value: 85 µg/mL
[5]
  MBC value: 95 µg/mL
[6]
  MBC value: 85 µg/mL
[7]
  MBC value: 90 µg/mL
[8]
  MBC value: 100 µg/mL
[9]
  MBC Pseudomonas aeruginosa: 100 µg/mL
[10]
  MBC Staphylococcus aureus: 100 µg/mL

Source: US12115209B2, “ROMO1-derived antimicrobial peptides including lysine substitution and variants thereof” (KOREA UNIVERSITY RESEARCH AND BUSINESS FOUNDATION, priority 2019, dated 2024)
